The text below walks through data of patent US7812162B2, “Enantiomers of 2′-fluoralkyl-6-nitroquipazine as serotonin transporter positron emission tomography imaging agents and antidepressant therapeutics” (The University of Montana, priority 2006, dated 2010).

Molecules are shown by their SMILES. Read-outs that look alike come from different tables or passages of the source.

In assay [1] the target is T1, rat frontal cortical SERT, rSERT (Rattus norvegicus, UniProt P31652).
T1 construct: rat frontal cortical SERT, rSERT; from tissue; host or cells: rat frontal cortex
T1 sequence (P31652 whole entry): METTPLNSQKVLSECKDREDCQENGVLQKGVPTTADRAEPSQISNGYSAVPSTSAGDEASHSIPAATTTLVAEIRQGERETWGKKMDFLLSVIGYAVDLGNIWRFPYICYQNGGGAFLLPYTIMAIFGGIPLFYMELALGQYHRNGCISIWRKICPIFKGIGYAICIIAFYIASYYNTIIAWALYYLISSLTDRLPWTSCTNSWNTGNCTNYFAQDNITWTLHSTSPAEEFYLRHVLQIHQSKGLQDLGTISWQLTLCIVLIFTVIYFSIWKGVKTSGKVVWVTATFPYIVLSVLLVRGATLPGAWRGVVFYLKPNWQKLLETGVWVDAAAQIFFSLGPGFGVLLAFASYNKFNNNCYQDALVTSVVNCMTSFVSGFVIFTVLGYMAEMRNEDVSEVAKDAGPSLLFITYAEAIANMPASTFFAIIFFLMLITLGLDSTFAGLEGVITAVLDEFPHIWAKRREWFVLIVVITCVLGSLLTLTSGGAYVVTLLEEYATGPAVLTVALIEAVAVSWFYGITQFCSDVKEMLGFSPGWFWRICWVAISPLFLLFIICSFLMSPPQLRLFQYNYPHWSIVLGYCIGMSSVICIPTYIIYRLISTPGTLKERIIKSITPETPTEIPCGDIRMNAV
The assay can be described thus: Competition binding assay, rat frontal cortical SERT, [3H]Paroxetine. Particulars: Competitive binding, rat brain cortex homogenate, 20° C., n = 3, mean±s.e.m. How it is done:
The compounds of the invention are potent (sub-nanomolar concentration) pharmacological inhibitor binding ligands of the serotonin transporter. Examples of the in vitro inhibition competitive pharmacological binding SERT potencies are shown in Table 3, where the binding constant Ki values are reported as mean±s.e.m., n=3 or greater. The binding constants were determined using an established competition assay (rat frontal cortical SERT, rSERT; [^3H]Paroxetine, 3 h incubation time at 20° C., nonspecific binding determined as the difference in the absence and presence of saturating levels of non-radioactive 6-nitroquipazine) [Gerdes 2000] which is a modified method of Habert [Habert 1985]. […] The ligands of the invention are considered to have antidepressant qualities since they effectively compete with the radiolabelled form of the known antidepressant Paroxetine ([^3H]Paroxetine) at the serotonin transporter [Tatsumi 1997, Hyttel 1994].

In assay [2] the target is T2, human serotonin transporter (hSERT) (Homo sapiens, UniProt P31645).
T2 construct: expressed in transfected cells; host or cells: HEK-293
T2 sequence (P31645 whole entry): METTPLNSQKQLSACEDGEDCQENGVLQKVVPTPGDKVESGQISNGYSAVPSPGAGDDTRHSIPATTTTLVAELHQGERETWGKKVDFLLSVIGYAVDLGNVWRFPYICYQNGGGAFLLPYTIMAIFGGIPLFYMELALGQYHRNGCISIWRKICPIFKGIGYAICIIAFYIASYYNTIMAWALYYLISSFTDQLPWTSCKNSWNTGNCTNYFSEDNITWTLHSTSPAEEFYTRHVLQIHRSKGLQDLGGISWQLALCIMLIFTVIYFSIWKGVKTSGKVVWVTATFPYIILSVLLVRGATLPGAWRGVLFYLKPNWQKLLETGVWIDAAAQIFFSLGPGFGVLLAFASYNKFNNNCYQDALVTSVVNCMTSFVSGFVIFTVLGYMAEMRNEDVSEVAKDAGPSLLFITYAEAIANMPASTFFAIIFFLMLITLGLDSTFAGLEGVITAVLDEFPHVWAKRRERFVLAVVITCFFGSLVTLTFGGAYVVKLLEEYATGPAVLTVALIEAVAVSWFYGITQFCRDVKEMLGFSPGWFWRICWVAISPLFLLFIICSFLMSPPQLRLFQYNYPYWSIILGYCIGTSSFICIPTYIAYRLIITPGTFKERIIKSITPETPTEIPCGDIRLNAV
Nature of the assay: Inhibition of [3H]5-HT uptake into HEK-293 cells transfected with hSERT. The assay is classed as cell-based. Particulars: hSERT HEK-293 cells, 20° C.

The target in assay [3] is T3, SERT (Rattus norvegicus, UniProt P31652). The note with it: Rat brain, [3H]paroxetine; SERT competitive binding; cited from earlier work.
T3 sequence (P31652 whole entry): as the sequence (P31652 whole entry) above
Assay [4] deals with T3, SERT. Particulars: Rat brain, [3H]citalopram; SERT competitive binding; cited from earlier work.

For orientation: Ki means the equilibrium dissociation constant of an inhibitor or competing ligand from its target. `O=[N+]([O-])c1ccc2nc(N3CCNCC3COCCCF)ccc2c1` (racemic) [Cpd 2, 2-[2-((3-Fluoropropoxy)methyl)piperazine-1-yl]-6-nitroquinoline] yielded a Ki in assay [1] of 0.28 ± 0.09 nM.
As to `COCC1CNCCN1c1ccc2cc([N+](=O)[O-])ccc2n1` (racemic) [Cpd 13], the Ki turned out to be 0.47 nM in assay [2] and 0.42 ± 0.01 nM in assay [1].
As to `O=[N+]([O-])c1ccc2nc(N3CCNCC3CO)ccc2c1` (racemic) [Cpd 14], the Ki in assay [1] amounted to 0.68 ± 0.04 nM.
In assay [1], `O=[N+]([O-])c1ccc2nc(N3CCNC[C@@H]3COCCCF)ccc2c1` [Cpd 2R] displayed a Ki of 0.25 ± 0.08 nM.
For `O=[N+]([O-])c1ccc2nc(N3CCNC[C@H]3COCCCF)ccc2c1` [Cpd 2S], the Ki in assay [1] was 1.56 ± 0.88 nM.
As for `O=[N+]([O-])c1ccc2nc(N3CCNCC3)ccc2c1` [Cpd 5], the Ki in assay [3] was 0.16 nM.
As for `O=[N+]([O-])c1ccc2nc(N3CCNCC3)ccc2c1I` [Cpd 6], the Ki in assay [3] was 0.17 nM.
As for `O=[N+]([O-])c1ccc2nc(N3CCNCC3)ccc2c1F` [Cpd 8], the Ki in assay [3] is 0.25 nM.
Turning to `O=[N+]([O-])c1ccc2nc(N3CCNCC3)c(CCCF)cc2c1` [Cpd 10], the Ki in assay [4] was 0.31 nM.
As for `CC1CNCCN1c1ccc2cc([N+](=O)[O-])ccc2n1` (stereo not drawn) [Cpd 12], the Ki in assay [3] was 0.08 nM.
`COC[C@H]1CNCCN1c1ccc2cc([N+](=O)[O-])ccc2n1` [Cpd 13R]: the Ki turned out to be 0.15 nM in assay [2] and 0.25 ± 0.03 nM in assay [1].
For `COC[C@@H]1CNCCN1c1ccc2cc([N+](=O)[O-])ccc2n1` [Cpd 13S, (S)-(−)-2-[2-(Methoxymethyl)piperazin-1-yl]-6-nitroquinolin], the Ki in assay [2] was 1.66 nM; in assay [1] it was 1.52 ± 0.1 nM.
